Reference: PMC11054487, “Species-Specific Unbound Fraction Differences in Highly Bound PFAS: A Comparative Study across Human, Rat, and Mouse Plasma and Albumin” (Toxics, 2024)

Columns and labels:
[1] = biological target: mouse serum albumin (MSA) (Mus musculus, UniProt P07724); experiment: Presaturation equilibrium dialysis, fraction unbound in mouse serum albumin solution; details: for fraction unbound at 18 h, 5 µM: mouse
Description: (§1) The equilibrium dialysis device (EQD) HTD96 (Gales Ferry, CT, USA) was assembled according to manufacturer instructions. DPBS buffer solutions were prepared by adding PFAS with a concentration of either approximately five-fold of the estimated fu values based on initial available data or assumed to be 0.001 if no data was available. The dialysis apparatus and membranes assembled were pre-saturated (250 µL) three times in total with PFAS spiked DPBS buffer solution; twice for 1 h followed by a final 18-h pre-saturation. This same solution was used on the receiver side of the EQD. […] This 4% albumin was used in the albumin binding study to recapitulate plasma concentration, as human albumin concentration in plasma is 3.5–4.5 g/dL (530–680 µM). The matrix was diluted five-fold using DPBS for PFAS that had preliminary fu values lower than 0.01. Dimethylsulfoxide (DMSO) stock solutions of test PFAS were prepared at 500 μM and added to species-specific plasma or 4% albumin to a final concentration of 5 μM with 1% DMSO. Next, 150 μL of PFAS spiked DPBS was added to the receiver side of the membrane and 150 μL of compound spiked matrix was added to the donor side. […] Each PFAS:matrix combination was assessed in quadruplicate. For sample collection, 15 μL of buffer and 45 μL of matrix were sampled from the dialysis device into a 96-deep well plate and matrix-matched with either blank buffer or matrix. The samples were then quenched with 200 μL of cold acetonitrile containing internal standard (tolbutamide 30 nM and carbamazepine 12 nM) to precipitate proteins. Next, the plates were sealed and placed on a vortex mixer for 1 min, and then centrifuged (Beckman Coulter, Fullerton, CA, USA) at 3000 rpm for 5 min at room temperature. Lastly, the supernatant was transferred to a new 96-well plate, fully dried down under nitrogen gas, reconstituted with 200 µL of 50/50 (v/v) HPLC grade water/acetonitrile, and vortexed for 1 min prior to LC-MS/MS analysis.
(§2) LC-MS/MS analyses were performed on a SCIEX Triple Quad 5500 mass spectrometer (SCIEX, Concord, ON, Canada) equipped with Turbo Ion Spray interface. […] All instruments were controlled and synchronized by SCIEX Analyst software (version 1.6.3). Mobile phases compositions were 0.1% formic acid in water (mobile phase A) and 0.1% formic acid in acetonitrile (mobile phase B). […] The column was equilibrated at 5% B for 0.5 min before injecting samples. The total run time for each injection was 6 min. The chromatographic separation was conducted on a Phenomenex Kinetex C18 100Å 30 × 2.1 mm column (Torrance, CA, USA) with a flow rate of 0.5 mL/min. The injection volume for each sample was 5 µL. Multiple-reaction-monitoring (MRM) mode using specific precursor/product ion transitions was used for quantification. Data processing was performed using SCIEX Analyst software (version 1.6.3).
(§3) The calculations for fu are shown in Equations (1) and (2), where D is the dilution factor and fu,d is the diluted fu shown below. All calculations are based on area ratios (analyte peak area/IS peak area), and MS responses used for calculations were all in linear ranges. […] (1) Diluted fud=Receiver Area Ratio/Donor Area Ratio (2) Undiluted fu=1/D/1/fu,d−1+1/D
(§4) Albumin concentrations for rodents have been reported in the literature as rat: 3.0 g/dL; CD-1 mice: 2.7 g/dL; C57BL/6 mice: 2.9 g/dL [53].

human plasma = experiment: Presaturation equilibrium dialysis, fraction unbound in human plasma; type: in vitro ADME; parameters: fraction unbound at 18 h: dose or concentration left out as unconfirmed; details: 5 μM PFAS, 18 h, 37 °C, value (CV)
Description: (§5) Each PFAS:matrix combination was assessed in quadruplicate.
(§6) The injection volume for each sample was 5 µL.

rat plasma = system: rat plasma; parameters: method as in PMID 12499116; details: ultrafiltration method; cited from earlier work
mouse (C57BL/6) plasma = experiment: Presaturation equilibrium dialysis, fraction unbound in C57BL/6 mouse plasma; type: in vitro ADME; parameters: fraction unbound at 18 h: dose or concentration left out as unconfirmed; details: 5 μM PFAS, 18 h, 37 °C, value (CV)
Description: as §5, §6

rat serum albumin (RSA) = rat serum albumin (RSA) (Rattus norvegicus, UniProt P02770); experiment: Presaturation equilibrium dialysis, fraction unbound in rat serum albumin solution; details: for fraction unbound at 18 h, 5 µM: rat
Description: as §1, §2, §3, §4

[2] = biological target: T1, human serum albumin (HSA) (Homo sapiens, UniProt P02768); experiment: Presaturation equilibrium dialysis, fraction unbound in human serum albumin solution; type: in vitro ADME; details: 4% human serum albumin in PBS, value (CV)
T1 construct: purchased Sigma-Aldrich
Description: as §5, §6

mouse (CD-1) plasma = experiment: Presaturation equilibrium dialysis, fraction unbound in CD-1 mouse plasma; type: in vitro ADME; parameters: fraction unbound at 18 h: dose or concentration left out as unconfirmed; details: 5 μM PFAS, 18 h, 37 °C, value (CV)
Description: as §5, §6

rat (Wistar-Han) plasma = experiment: Presaturation equilibrium dialysis, fraction unbound in rat plasma; type: in vitro ADME; parameters: fraction unbound at 18 h: dose or concentration left out as unconfirmed; details: 5 μM PFAS, 18 h, 37 °C, value (CV)
Description: as §5, §6

[3] = Presaturation equilibrium dialysis, fraction unbound in human plasma; type: in vitro ADME; parameters: fraction unbound at 18 h: dose or concentration left out as unconfirmed; details: human, 37 °C, value (CV), read-out: Fraction Unbound (fu) and Coefficient of Variance (CV), Human Plasma
Description: as §5, §6

[4] = Presaturation equilibrium dialysis, fraction unbound in C57BL/6 mouse plasma; type: in vitro ADME; parameters: fraction unbound at 18 h: dose or concentration left out as unconfirmed; details: 37 °C, value (CV), read-out: Fraction Unbound (fu) and Coefficient of Variance (CV), C57BL/6 Plasma
Description: as §5, §6

[5] = Presaturation equilibrium dialysis, fraction unbound in CD-1 mouse plasma; type: in vitro ADME; parameters: fraction unbound at 18 h: dose or concentration left out as unconfirmed; details: 37 °C, value (CV), read-out: Fraction Unbound (fu) and Coefficient of Variance (CV), CD-1 Plasma
Description: as §5, §6

[6] = Presaturation equilibrium dialysis, fraction unbound in rat plasma; type: in vitro ADME; parameters: fraction unbound at 18 h: dose or concentration left out as unconfirmed; details: Wistar-Han rat plasma, 37 °C, value (CV), read-out: Fraction Unbound (fu) and Coefficient of Variance (CV), Rat Plasma
Description: as §5, §6

[7] = humans; cited from earlier work
[8] = 3% mouse serum albumin, value (%CV)
[9] = 4% mouse serum albumin in PBS, 5 μM PFAS, value (CV)
[10] = 3% rat serum albumin, value (%CV)
[11] = 4% rat serum albumin in PBS, 5 μM PFAS, value (CV)
[12] = isolated protein, Fraction unbound (fu) and %CV, MSA 3%, 3% mouse serum albumin, value (%CV)
[13] = isolated protein, Fraction unbound (fu) and %CV, RSA 3%, 3% rat serum albumin, value (%CV)
[14] = 4% mouse serum albumin (MSA) solution, Fraction Unbound (fu) and Coefficient of Variance (CV), MSA, 4% mouse serum albumin in PBS, 5 μM PFAS, value (CV)
[15] = 4% rat serum albumin (RSA) solution, Fraction Unbound (fu) and Coefficient of Variance (CV), RSA, 4% rat serum albumin in PBS, 5 μM PFAS, value (CV)

T1 sequence (P02768 25-609): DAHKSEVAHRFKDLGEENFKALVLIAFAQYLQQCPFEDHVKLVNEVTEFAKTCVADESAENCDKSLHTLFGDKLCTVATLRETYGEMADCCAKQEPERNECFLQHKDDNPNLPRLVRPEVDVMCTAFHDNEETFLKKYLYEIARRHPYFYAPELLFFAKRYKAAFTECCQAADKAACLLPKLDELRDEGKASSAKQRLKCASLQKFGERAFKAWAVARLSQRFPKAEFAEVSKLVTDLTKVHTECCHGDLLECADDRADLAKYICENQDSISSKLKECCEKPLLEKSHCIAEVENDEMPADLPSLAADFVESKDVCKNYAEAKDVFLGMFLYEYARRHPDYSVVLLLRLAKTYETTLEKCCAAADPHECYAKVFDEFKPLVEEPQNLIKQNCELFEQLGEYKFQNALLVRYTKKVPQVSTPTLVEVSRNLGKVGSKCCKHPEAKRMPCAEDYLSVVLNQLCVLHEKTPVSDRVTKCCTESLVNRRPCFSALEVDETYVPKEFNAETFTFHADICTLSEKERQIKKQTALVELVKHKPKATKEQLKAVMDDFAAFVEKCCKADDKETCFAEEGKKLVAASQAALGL
rat serum albumin (RSA), sequence (P02770 25-608): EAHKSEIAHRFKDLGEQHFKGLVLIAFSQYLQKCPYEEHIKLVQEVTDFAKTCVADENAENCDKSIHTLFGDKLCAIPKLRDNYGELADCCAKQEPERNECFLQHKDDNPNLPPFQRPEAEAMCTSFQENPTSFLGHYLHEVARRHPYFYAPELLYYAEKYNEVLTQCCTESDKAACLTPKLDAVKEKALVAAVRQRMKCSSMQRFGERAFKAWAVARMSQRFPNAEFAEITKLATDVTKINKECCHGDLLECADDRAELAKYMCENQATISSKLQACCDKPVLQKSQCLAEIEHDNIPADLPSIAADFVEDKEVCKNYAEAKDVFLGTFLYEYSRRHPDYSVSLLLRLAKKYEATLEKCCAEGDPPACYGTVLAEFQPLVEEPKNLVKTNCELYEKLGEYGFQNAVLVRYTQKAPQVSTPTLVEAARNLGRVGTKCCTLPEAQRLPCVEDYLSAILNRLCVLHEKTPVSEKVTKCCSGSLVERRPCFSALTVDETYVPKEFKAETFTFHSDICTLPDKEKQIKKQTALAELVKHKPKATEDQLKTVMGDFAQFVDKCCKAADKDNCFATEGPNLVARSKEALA
mouse serum albumin (MSA), sequence (P07724 25-608): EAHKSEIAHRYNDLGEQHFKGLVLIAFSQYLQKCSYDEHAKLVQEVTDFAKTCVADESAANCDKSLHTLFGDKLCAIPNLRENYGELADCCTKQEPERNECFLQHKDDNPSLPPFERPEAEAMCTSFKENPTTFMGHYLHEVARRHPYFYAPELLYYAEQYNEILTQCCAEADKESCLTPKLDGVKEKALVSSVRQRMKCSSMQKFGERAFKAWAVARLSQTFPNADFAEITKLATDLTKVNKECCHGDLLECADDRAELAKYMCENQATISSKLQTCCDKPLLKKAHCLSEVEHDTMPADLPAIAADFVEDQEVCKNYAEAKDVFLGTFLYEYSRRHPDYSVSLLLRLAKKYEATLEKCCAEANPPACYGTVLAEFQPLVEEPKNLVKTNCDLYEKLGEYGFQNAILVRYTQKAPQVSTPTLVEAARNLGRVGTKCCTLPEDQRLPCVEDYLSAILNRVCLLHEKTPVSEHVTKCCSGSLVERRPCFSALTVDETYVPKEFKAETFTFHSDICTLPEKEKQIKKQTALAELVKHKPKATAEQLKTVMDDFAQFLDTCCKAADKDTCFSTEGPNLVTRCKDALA

## O=C(O)C(F)(F)C(F)(F)C(F)(F)C(F)(F)C(F)(F)C(F)(F)C(F)(F)C(F)(F)C(F)(F)F [PFDA, perfluorodecanoic acid]
[1]; [8]
  Fraction unbound (fu) and %CV, MSA 3%: 0.000839 (26%)
[1]; [9]
  Fraction Unbound (fu) and Coefficient of Variance (CV), MSA: 0.00102(26%)
Human plasma
  Fraction Unbound (fu) and Coefficient of Variance (CV), Human Plasma: 0.000618(9%)
Rat plasma
  bound: greater than 98%
Mouse (C57BL/6) plasma
  Fraction Unbound (fu) and Coefficient of Variance (CV), C57BL/6 Plasma: 0.00127(9%)
Rat serum albumin (RSA); [10]
  Fraction unbound (fu) and %CV, RSA 3%: 0.000494 (19%)
Rat serum albumin (RSA); [11]
  Fraction Unbound (fu) and Coefficient of Variance (CV), RSA: 0.000608(19%)
[2]; 5 μM PFAS
  Fraction Unbound (fu) and Coefficient of Variance (CV), HSA: 0.000584(8%)
Mouse (CD-1) plasma
  Fraction Unbound (fu) and Coefficient of Variance (CV), CD-1 Plasma: 0.0015(4%)
Rat (Wistar-Han) plasma
  Fraction Unbound (fu) and Coefficient of Variance (CV), Rat Plasma: 0.001(9%)

## O=C(O)C(F)(F)C(F)(F)C(F)(F)C(F)(F)C(F)(F)C(F)(F)F [PFHpA, perfluoroheptanoic acid]
[1]; isolated protein, Fraction Unbound (fu) and Coefficient of Variance (CV), MSA, 4% mouse serum albumin in PBS, 5 μM PFAS, value (CV)
  fraction unbound at 18 h, 5 µM: 0.0118
[1]; [12]
  fraction unbound at 18 h, 5 µM: 0.00954
[3]; plasma
  fraction unbound at 18 h: 0.00445
Rat plasma
  bound: greater than 98%
[4]
  fraction unbound at 18 h: 0.0323
Rat serum albumin (RSA); isolated protein, Fraction Unbound (fu) and Coefficient of Variance (CV), RSA, 4% rat serum albumin in PBS, 5 μM PFAS, value (CV)
  fraction unbound at 18 h, 5 µM: 0.00313
Rat serum albumin (RSA); [13]
  fraction unbound at 18 h, 5 µM: 0.00257
[5]
  fraction unbound at 18 h: 0.0331
[6]
  fraction unbound at 18 h: 0.00454

## O=C(O)C(F)(F)C(F)(F)C(F)(F)C(F)(F)C(F)(F)C(F)(F)C(F)(F)C(F)(F)F [PFNA, perfluorononanoic acid]
[1]; [8]
  Fraction unbound (fu) and %CV, MSA 3%: 0.00292 (6%)
[1]; [9]
  Fraction Unbound (fu) and Coefficient of Variance (CV), MSA: 0.00364(6%)
Human plasma
  Fraction Unbound (fu) and Coefficient of Variance (CV), Human Plasma: 0.00187(3%)
Rat plasma
  bound: greater than 98%
Mouse (C57BL/6) plasma
  Fraction Unbound (fu) and Coefficient of Variance (CV), C57BL/6 Plasma: 0.00438(22%)
Rat serum albumin (RSA); [10]
  Fraction unbound (fu) and %CV, RSA 3%: 0.00217 (2%)
Rat serum albumin (RSA); [11]
  Fraction Unbound (fu) and Coefficient of Variance (CV), RSA: 0.00271(2%)
Mouse (CD-1) plasma
  Fraction Unbound (fu) and Coefficient of Variance (CV), CD-1 Plasma: 0.00455(6%)
Rat (Wistar-Han) plasma
  Fraction Unbound (fu) and Coefficient of Variance (CV), Rat Plasma: 0.0021(6%)

## O=C(O)C(F)(F)C(F)(F)C(F)(F)C(F)(F)C(F)(F)C(F)(F)C(F)(F)F [PFOA, perfluorooctanoic acid]
[1]; [14]
  fraction unbound at 18 h, 5 µM: 0.00513
[1]; [12]
  fraction unbound at 18 h, 5 µM: 0.00411
[3]; 5 μM PFAS
  fraction unbound at 18 h, 5 µM: 0.0025
Rat plasma
  bound: greater than 98%
[4]; 5 μM PFAS
  fraction unbound at 18 h, 5 µM: 0.0142
[7]
  t1/2: 2.3–5.4 years
Rat serum albumin (RSA); [15]
  fraction unbound at 18 h, 5 µM: 0.00196
Rat serum albumin (RSA); [13]
  fraction unbound at 18 h, 5 µM: 0.00157
[2]; 4% human serum albumin (HSA) solution, 5 μM PFAS, read-out: Fraction Unbound (fu) and Coefficient of Variance (CV), HSA
  fraction unbound at 18 h, 5 µM: 0.00285
[5]; 5 μM PFAS
  fraction unbound at 18 h, 5 µM: 0.0152
[6]; 5 μM PFAS
  fraction unbound at 18 h, 5 µM: 0.00298

## NS(=O)(=O)C(F)(F)C(F)(F)C(F)(F)C(F)(F)C(F)(F)C(F)(F)C(F)(F)C(F)(F)F [PFOSA, perfluorooctanesulfonamide]
[1]; [14]
  fraction unbound at 18 h, 5 µM: 0.00127
[1]; [12]
  fraction unbound at 18 h, 5 µM: 0.00102
[3]
  fraction unbound at 18 h: 0.0019
[4]
  fraction unbound at 18 h: 0.0023
Rat serum albumin (RSA); [15]
  fraction unbound at 18 h, 5 µM: 0.00118
Rat serum albumin (RSA); [13]
  fraction unbound at 18 h, 5 µM: 0.000952
[2]; 4% human serum albumin (HSA) solution, read-out: Fraction Unbound (fu) and Coefficient of Variance (CV), HSA
  fraction unbound at 18 h: 0.00152
[5]
  fraction unbound at 18 h: 0.00326
[6]
  fraction unbound at 18 h: 0.00197
